Reference: patent publication US9271493B2, “Methods for microbial biofilm destruction” (priority 2012, dated 2016)
Where two headings read alike, the source gives them in different places.

Key:
UTI89 [1] = test: pellicle formation (biofilm at the air-liquid interface); format: cell-based, uropathogenic E. coli; details: for concentration preventing formation of a biofilm at the air-liquid interface: UTI89, complete inhibition; for pellicle formation / biofilm formation at the air-liquid interface: UTI89
Protocol: (§1) Biofilm assays. Colony biofilm formation was initiated by spotting 10 μl of overnight bacterial culture onto a YESCA agar plate (Kolodkin-Gal et al. (2010) Science 328:627-629). Colony morphology was observed after designated growth times at 26° C. Biofilm in YESCA broth attached to plastic (polyvinyl chloride, PVC) was determined using the Kolter crystal violet assay as described by O'Toole et al. (1998) Mol. Microbiol. 28:449-461. Briefly, bacterial cells were grown in 96-well PVC plates; unattached cells were washed away; and cells remaining associated with the PVC wells were stained with 0.1% crystal violet. The extent of biofilm formation was quantified by measuring the absorbance of crystal violet at OD595 after dissolving the PVC-associated biomass in 95% ethanol. The percent biofilm represents the increase in biofilm formation in the presence of various concentrations of DMSO and ethanol relative to biofilm formation when no compound was present. The mean of triplicate individual experiments was used and error bars represent the standard deviation. Pellicle formation was initiated by inoculating 4 μL of an overnight bacterial culture grown in YESCA broth in 4 mL YESCA in 12-well-plate wells and incubated at 26° C. Pellicle formation was inspected visually and assessed by perturbation with a pipet tip after 72 hours of growth.

UTI89 [2] = test: biofilm attached to PVC plastic, 96-well crystal violet assay; format: cell-based, uropathogenic E. coli
Protocol: as §1

UTI89 [3] = test: colony biofilm formation on YESCA agar; format: cell-based, uropathogenic E. coli; details: for biofilm formation on agar (colony morphology): UTI89 on YESCA agar
Protocol: (§2) Growth conditions. UTI89, UTI89ΔcsgA, MC4100, and MC4100Δcsg were grown on YESCA (0.5 g/L yeast extract; 10 g/L Casamino acids) agar supplemented with additional compounds as indicated.
as §1

E. coli strain MC4100 = test: fibronectin-binding assay (adhesion to fibronectin-coated plates); format: cell-based; details: MC4100 grown under curli-producing conditions on agar in the presence of compound; dose-dependent
From the text: We employed a commonly used fibronectin-binding assay to determine whether curcumin blocks adhesion of E. coli strain MC4100 to fibronectin-coated plates. MC4100 is the E. coli strain in which curli biogenesis was first described. […] UTI89, on the other hand, is a prototypical biofilm-competent strain that forms biofilms on agar, on plastic, and at an air-liquid interface when expressing curli and cellulose. Since curli are sufficient to mediate binding to fibronectin, the use of MC4100 readily allows one to determine whether a compound or external stimulus can influence curli-dependent adhesion.
as §2

E. coli = test: biofilm formation attached to Teflon (1 mL Teflon beakers, crystal violet); format: cell-based; details: 48 hours at 26° C. in YESCA broth
Protocol: FIG. 4. Curcumin and dim ethyl curcumin reduce E. coli biofilm formation attached to Teflon using 1 mL Teflon beakers. After bacterial incubation for 48 hours at 26° C. in YESCA nutrient broth in the presence or absence of compounds, planktonic and loosely associated bacteria were washed from the beakers and adherent bacteria were stained with crystal violet, dissolved in ethanol and quantified by spectrophotometry.
Teflon is often used as a material in various industrial and biomedical applications, including the production of catheters. Teflon is often employed due to its general anti-adherent properties. Yet, even E. coli can adhere to Teflon and forms biofilms on Teflon surfaces. Thus, we also examined the ability of curcumin and DMC to prevent biofilm formation attached to Teflon using small 1-mL Teflon beakers.

[4] = system: curli proteins, CsgA and CsgG; test: Western blot analysis of cell-associated curli proteins; format: cell-based, E. coli
Protocol: Western blot analysis. The cell-associated curli proteins, CsgA and CsgG, were examined by immunoblot assays as described (41). Briefly, whole-cell samples with equivalent cell number were prepared as cell pellets of 1 mL cell culture with an OD600 of 1.0. Each pellet was treated with 100 μL hexafluoroisopropanol (HFIP) to dissociate curli subunits (41). HFIP was removed by vacuum centrifugation, and samples were resuspended in SDS-PAGE loading buffer. Protein gel electrophoresis was carried out using 12% SDS-PAGE gels (Invitrogen) and blotted onto […] nitrocellulose transfer membranes (Whatman). The polyclonal rabbit antiserum to CsgA or CsgG was used as the primary antibody and horseradish peroxidase (HRP) conjugated goat anti-rabbit antibody (Pierce) was used as the secondary antibody (55).

[5] = target: Alzheimer's β-amyloid fibrils (Homo sapiens, UniProt P05067); details: Ono et al. 2004; cited from earlier work
amyloid β = amyloid β (Homo sapiens, UniProt P05067); details: oligomer form and fibril form; Yang et al. 2005; cited from earlier work
curli [6] = target: T1, curli (Escherichia coli, UniProt P28307); details: McCrate, Zhou, and Cegelski 2013; cited from earlier work
curli [7] = target: T1, curli; details: cited from earlier work

T1 sequence (P28307 21-151): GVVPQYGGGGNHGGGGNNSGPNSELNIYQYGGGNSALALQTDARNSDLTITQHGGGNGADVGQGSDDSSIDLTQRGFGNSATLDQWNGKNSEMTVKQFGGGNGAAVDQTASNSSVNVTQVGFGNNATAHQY
Sequence of Alzheimer's β-amyloid fibrils (P05067 672-713 limits assumed): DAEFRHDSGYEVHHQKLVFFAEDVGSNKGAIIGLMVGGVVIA
Sequence of amyloid β (P05067 672-713 limits assumed): as above

## COc1ccc(/C=C/C(=O)CC(=O)/C=C/c2ccc(OC)c(OC)c2)cc1OC [DMC, dimethoxycurcumin]
UTI89 [1]
  concentration preventing formation of a biofilm at the air-liquid interface: 10 µM
UTI89 [2]
  concentration blocking biofilm formation attached to plastic (PVC): 10 µM

## Nc1c(/N=N/c2ccc(-c3ccc(/N=N/c4cc(S(=O)(=O)O)c5ccccc5c4N)cc3)cc2)cc(S(=O)(=O)O)c2ccccc12 [Congo red]
UTI89 [1]
  pellicle formation / biofilm formation at the air-liquid interface: not
UTI89 [3]
  biofilm formation on agar (colony morphology): does not block biofilm formation

## COc1cc(/C=C/C(=O)CC(=O)/C=C/c2ccc(O)c(OC)c2)ccc1O [curcumin]
E. coli strain MC4100
  adhesion to the protein fibronectin: reduced adhesion
E. coli
  biofilm formation attached to Teflon: effective at significantly preventing biofilm formation
[4]; MC4100, Western blot
  production of curli proteins: did not influence
[4]; UTI89, Western blot
  curli production: not affected
UTI89 [1]
  pellicle formation / biofilm formation at the air-liquid interface: completely prevent pellicle formation
  concentration preventing formation of a biofilm at the air-liquid interface: 25 µM
UTI89 [3]; UTI89, 5 days of bacterial growth
  biofilm inhibition on agar after 5 days: diminished after 5 days
UTI89 [3]
  biofilm formation on agar (colony morphology): lost the hallmark rough and wrinkled phenotype
[5]
  amyloid fibril formation in vitro: prevent amyloid fibril formation
UTI89 [2]
  concentration blocking biofilm formation attached to plastic (PVC): 25 µM
UTI89 [2]; listed as curumin
  concentration blocking biofilm formation attached to plastic (PVC): 10 µM
Amyloid β
  binding to amyloid β: bind
Curli [6]
  binding to curli: binding to curli

## LL-37
Curli [7]
  curli formation: inhibits curli formation
